Test results taken from PubChem BioAssay AID330 (DTP/NCI, 2004).
Several values for one entry are separate records, joined by “and”; a condition that tells them apart may be missing. Identical values can stand only once. Toxic doses and inconclusive results are not listed. Rule for the calls: active = survival T/C of 150% or more; inactive = T/C below 125% in these data.

System: P388 leukemia ip, CD2F1 mice, survival T/C
Test: NCI In Vivo Anticancer Drug Screen. Data for tumor model P388 Leukemia (intraperitoneal) in CD2F1 (CDF1) mice
Settings: endpoint: median survival time, higher = longer survival
Outline: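 Mice carrying the transplanted tumor received test compound or vehicle. Survival was recorded in each group, and the value is the treated-group measurement divided by that of the vehicle-treated control group.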

[1] = dose: 60.0 mg/kg/injection, schedule: Q01DX005 (ip), vehicle: saline with Tween-80
[2] = dose: 120.0 mg/kg/injection, schedule: Q01DX005 (ip), vehicle: saline with Tween-80
[3] = dose: 50.0 mg/kg/injection, schedule: Q01DX005 (ip), vehicle: saline with Tween-80
[4] = dose: 100.0 mg/kg/injection, schedule: Q01DX005 (ip), vehicle: saline with Tween-80
[5] = dose: 200.0 mg/kg/injection, schedule: Q01DX005 (ip), vehicle: saline with Tween-80
[6] = dose: 240.0 mg/kg/injection, schedule: Q01DX005 (ip), vehicle: saline with Tween-80
[7] = dose: 25.0 mg/kg/injection, schedule: Q01DX009 (ip), vehicle: Klucel (hydroxypropylcellulose) (HPC)
[8] = dose: 50.0 mg/kg/injection, schedule: Q01DX009 (ip), vehicle: Klucel (hydroxypropylcellulose) (HPC)
[9] = dose: 200.0 mg/kg/injection, schedule: Q01DX009 (ip), vehicle: Klucel (hydroxypropylcellulose) (HPC)
[10] = dose: 100.0 mg/kg/injection, schedule: Q01DX009 (ip), vehicle: Klucel (hydroxypropylcellulose) (HPC)
[11] = dose: 60.0 mg/kg/injection, schedule: Q01DX005 (ip), vehicle: Klucel (hydroxypropylcellulose) (HPC)
[12] = dose: 120.0 mg/kg/injection, schedule: Q01DX005 (ip), vehicle: Klucel (hydroxypropylcellulose) (HPC)
[13] = dose: 240.0 mg/kg/injection, schedule: Q01DX005 (ip), vehicle: Klucel (hydroxypropylcellulose) (HPC)

Measured: T/C

CC(=O)OCC12C(OC(C)=O)CC(C)C3(CC(c4ccoc4)OC3=O)C1CCC(=O)C2(O)CCl (configuration not stated)
inactive: dose: 0.75 mg/kg/injection, schedule: Q01DX005 (ip), vehicle: saline + alcohol 106 % of control | dose: 1.5 mg/kg/injection, schedule: Q01DX005 (ip), vehicle: saline + alcohol 103 % of control | dose: 3.0 mg/kg/injection, schedule: Q01DX005 (ip), vehicle: saline + alcohol 106 % of control | dose: 6.0 mg/kg/injection, schedule: Q01DX005 (ip), vehicle: saline + alcohol 108 % of control | dose: 12.0 mg/kg/injection, schedule: Q01DX005 (ip), vehicle: saline + alcohol 106 % of control | dose: 12.5 mg/kg/injection, schedule: Q01DX005 (ip), vehicle: saline + Tween-80 + alcohol 92 % of control | dose: 25.0 mg/kg/injection, schedule: Q01DX005 (ip), vehicle: saline + Tween-80 + alcohol 98 % of control | dose: 100.0 mg/kg/injection, schedule: Q01DX005 (ip), vehicle: saline + Tween-80 + alcohol 89 % of control | dose: 150.0 mg/kg/injection, schedule: Q01DX005 (ip), vehicle: saline + Tween-80 + alcohol 91 % of control

CSc1nc(NC2OC(COC(C)=O)C(OC(C)=O)C(OC(C)=O)C2OC(C)=O)c(N=C(C)C(C)=O)c(=O)n1C (configuration not stated)
inactive: [1] 90 % of control | [2] 91 % of control

CCCCCCCCCCCCCCCCOc1ccc(OC)cc1C(=O)NNC(=S)SC
inactive: dose: 50.0 mg/kg/injection, schedule: Q01DX009 (ip), vehicle: saline + alcohol 100 % of control | dose: 100.0 mg/kg/injection, schedule: Q01DX009 (ip), vehicle: saline + alcohol 103 % of control | dose: 200.0 mg/kg/injection, schedule: Q01DX009 (ip), vehicle: saline + alcohol 87 % of control

Cc1cc(=O)c2ccc(Br)cc2[nH]1
inactive: [3] 100 % of control | [4] 97 % of control | [5] 100 % of control

COc1cc(C(Nc2ccccn2)c2cc3c(cc2O)OCO3)cc(OC)c1OC (configuration not stated)
inactive: [1] 100 % of control | [2] 94 % of control | [6] 94 % of control

Cc1ccc(S(=O)(=O)N=N/C=C2/C=CC=CN2O)cc1
inactive: [7] 118 % of control and 121 % of control | [8] 119 % of control | [9] 124 % of control

CCCCCCCCCCN(CCCCCCCCCC)C1CC(OC2CC(O)(C(C)O)Cc3c(O)c4c(c(O)c32)C(=O)c2c(OC)cccc2C4=O)OC(C)C1O (configuration not stated)
inactive: dose: 4.7 mg/kg/injection, schedule: Q04DX003 (ip), vehicle: water 99 % of control | dose: 9.4 mg/kg/injection, schedule: Q04DX003 (ip), vehicle: water 99 % of control | dose: 18.8 mg/kg/injection, schedule: Q04DX003 (ip), vehicle: water 101 % of control | dose: 37.5 mg/kg/injection, schedule: Q04DX003 (ip), vehicle: water 110 % of control | dose: 75.0 mg/kg/injection, schedule: Q04DX003 (ip), vehicle: water 101 % of control

C=C1C(=O)OC2/C=C(\C)C(OC(C)=O)/C=C\C(C)(O)CC(OC(=O)/C(C)=C/C)C12 (configuration not stated)
inactive: dose: 10.0 mg/kg/injection, schedule: Q01DX009 (ip), vehicle: saline with Tween-80 105 % of control | dose: 20.0 mg/kg/injection, schedule: Q01DX009 (ip), vehicle: saline with Tween-80 99 % of control | dose: 40.0 mg/kg/injection, schedule: Q01DX009 (ip), vehicle: saline with Tween-80 110 % of control | dose: 80.0 mg/kg/injection, schedule: Q01DX009 (ip), vehicle: saline with Tween-80 115 % of control

CCCCCC(=O)C(C)(c1nc2nnc(NC(=O)Nc3ccc(Cl)cc3)n2[nH]c1=O)c1nc2nnc(NC(=O)Nc3ccc(Cl)cc3)n2[nH]c1=O
inactive: [1] 103 % of control | [2] 98 % of control | [6] 97 % of control

CC(=O)N/N=C(/C(=O)O)c1ccccc1
inactive: dose: 100.0 mg/kg/injection, schedule: Q04DX002 (ip), vehicle: Klucel (hydroxypropylcellulose) (HPC) 98 % of control | dose: 200.0 mg/kg/injection, schedule: Q04DX002 (ip), vehicle: Klucel (hydroxypropylcellulose) (HPC) 99 % of control | dose: 400.0 mg/kg/injection, schedule: Q04DX002 (ip), vehicle: Klucel (hydroxypropylcellulose) (HPC) 95 % of control

COc1ccc2c(NCCCCNc3c4ccccc4nc4cc(OC)ccc34)c3ccccc3nc2c1
inactive: dose: 0.62 mg/kg/injection, schedule: Q01DX009 (ip), vehicle: other 101 % of control | dose: 1.25 mg/kg/injection, schedule: Q01DX009 (ip), vehicle: other 102 % of control | dose: 2.5 mg/kg/injection, schedule: Q01DX009 (ip), vehicle: other 108 % of control | dose: 5.0 mg/kg/injection, schedule: Q01DX009 (ip), vehicle: other 101 % of control | dose: 10.0 mg/kg/injection, schedule: Q01DX009 (ip), vehicle: other 107 % of control | dose: 20.0 mg/kg/injection, schedule: Q01DX009 (ip), vehicle: other 110 % of control

O=C(c1ccco1)N1CCN(C(=O)c2ccco2)CC1
inactive: [3] 104 % of control | [4] 96 % of control | [5] 100 % of control

CCC1CCC(=O)NC1=O (configuration not stated)
inactive: [1] 103 % of control | [2] 103 % of control | [6] 98 % of control

COC(=O)C1c2ccccc2CC(=O)N1NC(=O)c1ccccc1 (configuration not stated)
inactive: [8] 98 % of control | [10] 94 % of control

Cc1ccccc1C1OC2=C(Nc3ccccc3N2)C1=O (configuration not stated)
inactive: [11] 99 % of control | [12] 101 % of control | [13] 92 % of control

COc1ccc2c(c1)C(=O)C=C(c1ccccc1)S2(=O)=O
inactive: [11] 110 % of control | [12] 110 % of control | [13] 117 % of control

COc1cccc2c1C(=O)c1c(O)c3c(c(O)c1C2=O)C[C@@H](C(C)=O)C[C@@H]3OC1CC(N)C(O)C(C)O1 (some centres not stated)
inactive: dose: 6.25 mg/kg/injection, schedule: Q04DX003 (ip), vehicle: water 109 % of control | dose: 12.5 mg/kg/injection, schedule: Q04DX003 (ip), vehicle: water 120 % of control | dose: 25.0 mg/kg/injection, schedule: Q04DX003 (ip), vehicle: water 113 % of control | dose: 50.0 mg/kg/injection, schedule: Q04DX003 (ip), vehicle: water 120 % of control | dose: 100.0 mg/kg/injection, schedule: Q04DX003 (ip), vehicle: water 93 % of control

c1cn(C23CC4CC(CC(C4)C2)C3)cn1
inactive: dose: 25.0 mg/kg/injection, schedule: Q01DX001 (ip), vehicle: Klucel (hydroxypropylcellulose) (HPC) 97 % of control

O=S(=O)(O)O.[Ga]
inactive: dose: 33.0 mg/kg/injection, schedule: Q04DX003 (ip), vehicle: saline sonified 95 % of control | dose: 50.0 mg/kg/injection, schedule: Q01DX009 (ip), vehicle: saline sonified 100 % of control | dose: 50.0 mg/kg/injection, schedule: Q04DX003 (ip), vehicle: saline sonified 110 % of control

C/C(=C1/N=C(c2ccccc2)OC1=O)c1ccccc1
inactive: [3] 98 % of control | [4] 96 % of control | [5] 98 % of control

O=C(c1cc2ccccc2o1)N1CCN(Cc2ccccc2)CC1
inactive: [8] 102 % of control | [10] 101 % of control | [9] 109 % of control

C=CCCCC/C=C/C=C/C#CC#C/C=C/COC(C)=O
inactive: dose: 12.5 mg/kg/injection, schedule: Q01DX009 (ip), vehicle: Klucel (hydroxypropylcellulose) (HPC) 100 % of control | [7] 106 % of control | [8] 106 % of control | [10] 106 % of control

CSNC(C)=O
inactive: dose: 25.0 mg/kg/injection, schedule: Q01DX009 (ip), vehicle: saline with Tween-80 102 % of control | dose: 50.0 mg/kg/injection, schedule: Q01DX009 (ip), vehicle: saline with Tween-80 109 % of control | dose: 100.0 mg/kg/injection, schedule: Q01DX009 (ip), vehicle: saline with Tween-80 111 % of control

NC(N)=NS(=O)(=O)c1ccc(N=CC2C(=O)N(c3ccccc3)N(c3ccccc3)C2=O)cc1
inactive: [8] 92 % of control | [10] 92 % of control | [9] 100 % of control

CC(C)(C)P(c1ccccc1)C(C)(C)C
inactive: dose: 100.0 mg/kg/injection, schedule: Q04DX002 (ip), vehicle: saline with Tween-80 103 % of control

NCCSSc1ccccc1C(=O)O
inactive: dose: 50.0 mg/kg/injection, schedule: Q01DX005 (ip), vehicle: Klucel (hydroxypropylcellulose) (HPC) 102 % of control | dose: 100.0 mg/kg/injection, schedule: Q01DX005 (ip), vehicle: Klucel (hydroxypropylcellulose) (HPC) 105 % of control | dose: 200.0 mg/kg/injection, schedule: Q01DX005 (ip), vehicle: Klucel (hydroxypropylcellulose) (HPC) 112 % of control
